Holding throughout (format): cell-based, human
The test system of test [1] is colorectal carcinoma (HT-29) cells. The test can be described thus: Antiproliferative MTT assay, HT-29. The note with it: for IC50: Homo sapiens, HT-29, 72 h, 72 h incubation, MTT, mean ± SD; for SI (HT-29): SI = [IC50 HFF]/[IC50 HT-29]. As for the experimental part: (§1) The human ATCC tumor cell lines breast adenocarcinoma (MCF7), colorectal carcinoma (HT-29), pancreatic ductal adenocarcinoma (CFPAC-1), hepatocellular carcinoma (HepG2), and normal skin fibroblasts (HFF) derived from ATCC (American Type Culture Collection) were cultured in Dulbecco’s Modified Eagle Medium (DMEM) or Minimum Essential Medium (MEM) supplemented with 10% fetal bovine serum (FBS), 2 mM L-glutamine, 100 U/mL penicillin, and 100 µg/mL streptomycin (Lonza, Basel, Switzerland) in a humidified atmosphere with 5% CO2 at 37 °C. For the experiment, carcinoma cell lines and normal human cell lines were seeded in 96-well microtiter plates at a density of 3000 cells per well and 5000 cells per well, respectively, depending on the doubling time of the specific cell line. The test substances were then added at fivefold, tenfold dilutions (0.01 to 100 µM), freshly prepared in the growth medium on the day of testing, and incubated for a further 72 h. After 72 h of incubation, the growth rate of the cells was determined using the MTT assay according to the manufacturer’s guidelines. […] The IC50 values were calculated from the dose–response curves using linear regression analysis. The experiment was performed in tetraplicates in two individual experiments.
(§2) Newly synthesized compounds were evaluated for their cytotoxic activity in vitro against four human cancer cell lines, including human breast adenocarcinoma (MCF-7), ductal pancreatic adenocarcinoma (CFPAC-1), colorectal carcinoma (HT-29), and hepatocellular carcinoma (HepG2), as well as on non-cancerous skin fibroblasts (HFF-1), to check for non-specific toxicity. Furthermore, 5-Fluorouracil (5-FU) was used as a reference drug. The results are expressed as 50% inhibitory concentration (IC50) values and are listed in Table 2, Table 3, Table 4 and Table 5.
Background: Formazan colour is commonly taken as a measure of viable cells.

The subject of test [2] is normal skin fibroblasts (HFF-1). The test can be described thus: Cytotoxicity MTT assay, normal skin fibroblasts. The note with it: Homo sapiens, HFF-1, 72 h, 72 h incubation, mean ± SD. How it is done:
as §1, §2

For test [3], the system named is breast adenocarcinoma (MCF7) cells. The test can be described thus: Antiproliferative MTT assay, MCF-7. The settings on record: for IC50: Homo sapiens, MCF7, 72 h incubation, MTT, mean ± SD; for SI (MCF-7): SI = [IC50 HFF]/[IC50 MCF-7]. How it is done: as §1, §2
For test [4], the system named is hepatocellular carcinoma (HepG2) cells. The test can be described thus: Antiproliferative MTT assay, HepG2. The settings on record: for IC50: Homo sapiens, HepG2, 72 h, 72 h incubation, MTT, mean ± SD; for SI (HepG2): SI = [IC50 HFF]/[IC50 HepG2]. How it is done:
as §1, §2

Test [5] concerns pancreatic ductal adenocarcinoma (CFPAC-1) cells. The test can be described thus: Antiproliferative MTT assay, CFPAC-1. The settings on record: for IC50: Homo sapiens, CFPAC-1, 72 h, 72 h incubation, MTT, mean ± SD; for SI (CFPAC-1): SI = [IC50 HFF]/[IC50 CFPAC-1]. How it is done: as §1, §2

Broadly, the IC50 is the concentration needed to halve the response being measured. Low values mean higher potency, high ones lower potency.

With `O[C@@H](Cn1cc(Cn2ccc3c(Cl)ncnc32)nn1)c1ccc(F)cc1` [Compound (R)-42b, (R)-4-Chloro-7-((1-(2-hydroxy-2-(4-fluorophenyl)ethyl)-1H-1,2,3-triazol-4-yl)methyl)-7H-pyrrolo[2,3-d]pyrimidine], the IC50 in test [1] came to 27 ± 1.4 µM; in test [2], 24 ± 2.4 µM; in test [3], 60 ± 1.2 µM; in test [4], 32 ± 6.04 µM; in test [5], 20 ± 0.9 µM. Besides, the “SI (MCF-7)” value in test [3] was 0.4. In test [5], the “SI (CFPAC-1)” value stood at 1.2.
For `O[C@@H](Cn1cc(Cn2ccc3c(Cl)ncnc32)nn1)c1ccc(Cl)cc1` [Compound (R)-43b, (R)-4-Chloro-7-((1-(2-hydroxy-2-(4-chlorophenyl)ethyl)-1H-1,2,3-triazol-4-yl)methyl)-7H-pyrrolo[2,3-d]pyrimidine], the IC50 in test [1] came out at 48 ± 4.8 µM; in test [2], 20 ± 6.5 µM; in test [3], 35 ± 1.9 µM; in test [4] it was 26 ± 8.2 µM; in test [5] it was 32 ± 16.1 µM. In addition, the “SI (MCF-7)” value in test [3] is listed as 0.6. For the same compound, the “SI (CFPAC-1)” value in test [5] was determined as 0.6.
With `O[C@@H](Cn1cc(Cn2ccc3c(Cl)ncnc32)nn1)c1ccc(C(F)(F)F)cc1` [Compound (R)-45b, (R)-4-Chloro-7-((1-(2-hydroxy-2-(4-(trifluoromethyl)phenyl)ethyl)-1H-1,2,3-triazol-4-yl)methyl)-7H-pyrrolo[2,3-d]pyrimidin], the IC50 in test [1] was found to be 45 ± 4 µM; in test [2] it was 21 ± 3.8 µM; in test [3], 43 ± 4.6 µM; in test [4], 38 ± 7.6 µM; in test [5] it was 49 ± 8.7 µM. Moreover, the “SI (MCF-7)” value in test [3] came to 0.5. The “SI (CFPAC-1)” value in test [5] is listed as 0.4.
`O[C@H](Cn1cc(Cn2cnc3c(Cl)ncnc32)nn1)c1ccccc1` [Compound (S)-36b, (S)-6-Chloro-9-((1-(2-hydroxy-2-phenylethyl)-1H-1,2,3-triazol-4-yl)methyl)-9H-purine]: the IC50 in test [1] is 48 ± 4.8 µM; in test [2] it was greater than 100 µM; in test [3], 33 ± 5.8 µM; in test [4] it was 21 ± 0.8 µM; in test [5] it was 32 ± 5.3 µM. In test [1], the “SI (HT-29)” value is listed as greater than 2.1. Also, the “SI (HepG2)” value in test [4] is greater than 4.8.
As to `O[C@H](Cn1cc(Cn2cnc3c(Cl)ncnc32)nn1)c1ccc(F)cc1` [Compound (S)-37b, (S)-6-Chloro-9-((1-(2-hydroxy-2-(4-fluorophenyl)ethyl)-1H-1,2,3-triazol-4-yl)methyl)-9H-purine], the 50% inhibitory concentration (IC50) was found to be 24 ± 2.9 µM in test [1]; 70 ± 19.5 µM in test [2]; 73 ± 2.9 µM in test [3]; 45 ± 1.9 µM in test [4]; 65 ± 5.4 µM in test [5]. For the same compound, the “SI (HT-29)” value in test [1] is 2.9. Further, the “SI (HepG2)” value in test [4] is on record as 1.6.
As for `O[C@H](Cn1cc(Cn2cnc3c(Cl)ncnc32)nn1)c1ccc(Cl)cc1` [Compound (S)-38b], the IC50 in test [1] worked out at 47 ± 16.8 µM; in test [2] it was 81 ± 1.8 µM; in test [3], 58 ± 1.9 µM; in test [4], 28 ± 7.5 µM; in test [5], 51 ± 11.7 µM. Further, in test [1], the “SI (HT-29)” value worked out at 1.7. For the same compound, in test [4], the “SI (HepG2)” value is on record as 2.9.
Consider `O[C@H](Cn1cc(Cn2ccc3c(Cl)ncnc32)nn1)c1ccccc1` [Compound (S)-41b, (S)-4-Chloro-7-((1-(2-hydroxy-2-phenylethyl)-1H-1,2,3-triazol-4-yl)methyl)-7H-pyrrolo[2,3-d]pyrimidine], for which the IC50 in test [1] was 41 ± 5.6 µM; in test [2], 58 ± 3.1 µM; in test [3], 45 ± 7.2 µM; in test [4] it was 41 ± 12.4 µM; in test [5] it was 49 ± 18.5 µM. Further, the “SI (MCF-7)” value in test [3] is reported as 1.3. Besides, in test [5], the “SI (CFPAC-1)” value is given as 1.2.

The record behind these values is publication PMC11940194, “Synthesis, Antiproliferative Activity, and ADME Profiling of Novel Racemic and Optically Pure Aryl-Substituted Purines and Purine Bioisosteres” (Biomolecules, 2025).
